Here are results for 1 molecule from ChEMBL document CHEMBL5236603, “Discovery of mobocertinib, a potent, oral inhibitor of EGFR exon 20 insertion mutations in non-small cell lung cancer” (Bioorg Med Chem Lett, 2023).

Where only a bound is given, the exact number is not on record here.

Series [1] has as its system BaF3. The experiment in a line: In vivo antitumor activity against mouse BaF3 cells expressing EGFR exon 20 insertion (ex20ins) ASV implanted in SCID mouse assessed as tumor regression at 100 mg/kg, po administered for 7 consecutive days. In kind it is functional. Particulars: time 7 day.
Series [2] deals with Receptor tyrosine-protein kinase erbB-4 (Homo sapiens) (UniProt Q15303). The experiment in a line: Inhibition of human HER4 at 1 uM by hotspot assay relative to control.
Receptor tyrosine-protein kinase erbB-4 (Homo sapiens), sequence (Q15303 whole entry): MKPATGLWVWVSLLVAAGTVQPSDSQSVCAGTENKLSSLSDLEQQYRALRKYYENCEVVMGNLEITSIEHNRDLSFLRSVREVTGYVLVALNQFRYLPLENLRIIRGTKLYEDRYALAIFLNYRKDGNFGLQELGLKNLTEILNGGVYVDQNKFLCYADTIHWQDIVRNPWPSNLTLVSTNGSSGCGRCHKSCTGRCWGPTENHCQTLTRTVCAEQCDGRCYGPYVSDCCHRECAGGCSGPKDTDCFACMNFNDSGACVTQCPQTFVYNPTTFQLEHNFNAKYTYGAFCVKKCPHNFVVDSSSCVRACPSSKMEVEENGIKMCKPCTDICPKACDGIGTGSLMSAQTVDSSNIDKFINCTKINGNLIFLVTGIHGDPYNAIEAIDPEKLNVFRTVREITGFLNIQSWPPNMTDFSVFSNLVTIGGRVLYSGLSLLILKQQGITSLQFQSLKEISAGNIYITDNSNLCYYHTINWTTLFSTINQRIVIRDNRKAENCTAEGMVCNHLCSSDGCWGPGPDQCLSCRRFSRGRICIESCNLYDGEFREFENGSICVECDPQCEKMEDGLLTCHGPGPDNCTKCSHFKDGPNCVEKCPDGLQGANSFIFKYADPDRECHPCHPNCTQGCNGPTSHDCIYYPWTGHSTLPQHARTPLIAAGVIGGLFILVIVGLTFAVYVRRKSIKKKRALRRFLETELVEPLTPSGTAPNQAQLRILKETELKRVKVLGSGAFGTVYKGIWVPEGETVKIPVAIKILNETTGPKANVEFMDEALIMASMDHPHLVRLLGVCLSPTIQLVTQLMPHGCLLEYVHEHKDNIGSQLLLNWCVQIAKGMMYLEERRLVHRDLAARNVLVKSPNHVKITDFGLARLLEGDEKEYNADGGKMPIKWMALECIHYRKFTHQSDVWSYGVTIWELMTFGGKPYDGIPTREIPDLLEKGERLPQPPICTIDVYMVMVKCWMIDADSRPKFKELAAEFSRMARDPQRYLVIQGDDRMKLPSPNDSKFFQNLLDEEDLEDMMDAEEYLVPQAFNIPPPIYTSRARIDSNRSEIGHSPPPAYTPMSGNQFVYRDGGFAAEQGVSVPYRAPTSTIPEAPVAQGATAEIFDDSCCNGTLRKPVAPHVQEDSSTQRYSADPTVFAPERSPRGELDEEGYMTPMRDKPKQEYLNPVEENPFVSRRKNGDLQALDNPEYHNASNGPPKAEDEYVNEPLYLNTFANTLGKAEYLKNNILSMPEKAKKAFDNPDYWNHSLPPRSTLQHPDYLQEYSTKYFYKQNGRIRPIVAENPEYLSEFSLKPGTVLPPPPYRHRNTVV
A short description of series [3]: AUClast in CD-1 mouse at 10 mg/kg, po by LC/MS/MS analysis. In kind it is ADME, organism-based. Particulars: in vivo. Also noted: dose 10 mg/kg, route po.
Series [4] deals with Tyrosine-protein kinase BTK (Homo sapiens), Q06187 [E41K]. The experiment in a line: Inhibition of human BTK E41K mutant at 1 uM by hotspot assay relative to control.
Tyrosine-protein kinase BTK (Homo sapiens), Q06187 [E41K], sequence (Q06187 whole entry E41K): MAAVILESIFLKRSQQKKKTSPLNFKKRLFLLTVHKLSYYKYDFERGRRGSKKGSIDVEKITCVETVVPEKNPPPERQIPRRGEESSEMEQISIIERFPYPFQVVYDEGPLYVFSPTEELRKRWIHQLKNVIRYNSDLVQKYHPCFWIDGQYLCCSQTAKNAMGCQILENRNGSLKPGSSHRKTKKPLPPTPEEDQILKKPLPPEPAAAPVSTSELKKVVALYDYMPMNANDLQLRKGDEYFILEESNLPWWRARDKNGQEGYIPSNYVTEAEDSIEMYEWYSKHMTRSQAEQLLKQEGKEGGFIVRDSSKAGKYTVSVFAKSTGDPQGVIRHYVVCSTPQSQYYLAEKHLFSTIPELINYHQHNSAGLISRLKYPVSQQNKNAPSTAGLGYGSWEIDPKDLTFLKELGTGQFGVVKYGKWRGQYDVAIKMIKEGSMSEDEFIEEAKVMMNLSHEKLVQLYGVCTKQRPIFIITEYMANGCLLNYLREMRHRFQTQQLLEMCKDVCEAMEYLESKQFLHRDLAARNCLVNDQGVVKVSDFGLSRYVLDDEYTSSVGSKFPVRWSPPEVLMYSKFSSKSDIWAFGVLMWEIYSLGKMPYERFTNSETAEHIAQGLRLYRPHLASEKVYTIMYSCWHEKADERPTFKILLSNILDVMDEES
For series [5], the target named is T1, Tyrosine-protein kinase ITK/TSK (Homo sapiens) (UniProt Q08881).
T1 sequence (whole entry): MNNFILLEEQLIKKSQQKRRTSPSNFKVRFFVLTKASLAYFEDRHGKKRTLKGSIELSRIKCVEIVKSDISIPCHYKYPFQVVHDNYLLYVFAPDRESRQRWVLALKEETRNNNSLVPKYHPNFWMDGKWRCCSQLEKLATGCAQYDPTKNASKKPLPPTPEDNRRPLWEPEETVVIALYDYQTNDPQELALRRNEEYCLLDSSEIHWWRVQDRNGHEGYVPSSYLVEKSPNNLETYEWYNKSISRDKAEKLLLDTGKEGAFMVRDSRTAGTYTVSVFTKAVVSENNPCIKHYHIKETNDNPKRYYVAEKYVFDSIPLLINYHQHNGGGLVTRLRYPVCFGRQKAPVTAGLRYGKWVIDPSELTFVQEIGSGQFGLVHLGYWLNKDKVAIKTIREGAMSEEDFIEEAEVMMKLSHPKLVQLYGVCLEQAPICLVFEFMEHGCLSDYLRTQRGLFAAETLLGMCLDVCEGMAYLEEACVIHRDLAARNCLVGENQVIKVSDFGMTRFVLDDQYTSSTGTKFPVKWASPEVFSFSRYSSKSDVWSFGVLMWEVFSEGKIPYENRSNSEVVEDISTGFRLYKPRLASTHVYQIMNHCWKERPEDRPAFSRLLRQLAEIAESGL
The experiment in a line: Inhibition of human ITK at 1 uM by hotspot assay relative to control.

Series [6] can be described thus: Inhibition of mouse EGFR N771_H773dup H773_V774insNPH […] (NPH) mutant stably expressed in mouse BaF3 cells assessed as cell viability incubated for 3 days by Cell Titer-Glo assay. In kind it is cell-based. Particulars: BaF3, 72 h. Background: In ATP-based viability assays light output follows the ATP content of the culture.
A short description of series [7]: Toxicity in SCID mouse assessed as signs of clinical toxicity at 100 mg/kg, po administered for 7 consecutive days. In kind it is organism-based. The conditions noted are these: in vivo.
Series [8] deals with BaF3. The experiment in a line: Anticancer activity against parental mouse BaF3 cells assessed as cell viability incubated for 3 days by Cell Titer-Glo assay. The conditions noted are these: BaF3, 72 h. In kind it is functional, cell-based.
Series [9] is described as follows: Cmax in CD-1 rat at 10 mg/kg, po by LC/MS/MS analysis. Particulars: in vivo. Also noted: dose 10 mg/kg, route po. In kind it is ADME, organism-based.
Series [10] has as its target Epidermal growth factor receptor (Homo sapiens, UniProt P00533). As to the kind of experiment: Inhibition of […]-induced wild type EGFR phosphorylation in human A-431 cells pretreated for 2 hrs followed by EGF stimulation by immune assay. In kind it is cell-based.
In series [11] the target is T2, Tyrosine-protein kinase JAK3 (Homo sapiens) (UniProt P52333).
T2 sequence (whole entry): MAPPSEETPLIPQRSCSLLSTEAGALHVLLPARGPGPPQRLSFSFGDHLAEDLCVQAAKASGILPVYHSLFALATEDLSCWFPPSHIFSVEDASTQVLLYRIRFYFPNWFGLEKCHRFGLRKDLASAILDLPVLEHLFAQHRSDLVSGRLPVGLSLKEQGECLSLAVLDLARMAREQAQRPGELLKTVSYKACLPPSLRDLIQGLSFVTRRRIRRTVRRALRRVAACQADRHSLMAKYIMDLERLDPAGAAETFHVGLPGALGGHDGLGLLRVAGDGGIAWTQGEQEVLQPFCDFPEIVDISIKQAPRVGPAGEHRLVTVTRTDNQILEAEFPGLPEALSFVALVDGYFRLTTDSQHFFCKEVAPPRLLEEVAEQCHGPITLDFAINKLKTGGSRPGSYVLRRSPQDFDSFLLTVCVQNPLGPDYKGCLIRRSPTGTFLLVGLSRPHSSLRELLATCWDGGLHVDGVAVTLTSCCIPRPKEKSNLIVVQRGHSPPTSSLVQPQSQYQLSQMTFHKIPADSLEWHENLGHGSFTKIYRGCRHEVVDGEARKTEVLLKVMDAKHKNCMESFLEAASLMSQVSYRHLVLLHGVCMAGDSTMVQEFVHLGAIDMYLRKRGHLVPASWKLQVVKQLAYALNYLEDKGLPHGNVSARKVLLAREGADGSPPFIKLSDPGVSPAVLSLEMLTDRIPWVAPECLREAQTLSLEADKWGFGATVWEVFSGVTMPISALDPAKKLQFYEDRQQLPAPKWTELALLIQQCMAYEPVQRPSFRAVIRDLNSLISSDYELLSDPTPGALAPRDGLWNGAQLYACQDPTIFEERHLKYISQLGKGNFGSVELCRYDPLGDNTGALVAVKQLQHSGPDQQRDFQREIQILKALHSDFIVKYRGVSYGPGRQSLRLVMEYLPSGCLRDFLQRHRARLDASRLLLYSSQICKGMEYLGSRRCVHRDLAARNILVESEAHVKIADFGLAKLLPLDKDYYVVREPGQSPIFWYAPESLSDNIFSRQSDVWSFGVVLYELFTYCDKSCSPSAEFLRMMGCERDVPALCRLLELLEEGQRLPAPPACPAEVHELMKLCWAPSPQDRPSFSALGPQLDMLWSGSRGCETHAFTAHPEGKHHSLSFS
As to the kind of experiment: Inhibition of human JAK3 at 1 uM by hotspot assay relative to control.

A short description of series [12]: Inhibition of mouse EGFR S768_D770dup D770_N771insSVD (SVD) mutant stably expressed in mouse BaF3 cells assessed as cell viability incubated for 3 days by Cell Titer-Glo assay. The conditions noted are these: BaF3, 72 h. In kind it is cell-based.
The nature of series [13]: Inhibition of mouse EGFR common activating deletion mutant stably expressed in mouse BaF3 cells assessed as cell viability incubated for 3 days by Cell Titer-Glo assay. In kind it is cell-based. Particulars: BaF3, 72 h.
Series [14] is described as follows: Inhibition of mouse EGFR del-T790M mutant stably expressed in mouse BaF3 cells assessed as cell viability incubated for 3 days by Cell Titer-Glo assay. In kind it is cell-based. Particulars: BaF3, 72 h.
The nature of series [15]: Inhibition of mouse EGFR A767_V769dup V769_D770insASV (ASV) mutant stably expressed in mouse BaF3 cells assessed as cell viability incubated for 3 days by Cell Titer-Glo assay. In kind it is cell-based. Particulars: BaF3, 72 h.

Epidermal growth factor receptor, sequence (P00533 whole entry): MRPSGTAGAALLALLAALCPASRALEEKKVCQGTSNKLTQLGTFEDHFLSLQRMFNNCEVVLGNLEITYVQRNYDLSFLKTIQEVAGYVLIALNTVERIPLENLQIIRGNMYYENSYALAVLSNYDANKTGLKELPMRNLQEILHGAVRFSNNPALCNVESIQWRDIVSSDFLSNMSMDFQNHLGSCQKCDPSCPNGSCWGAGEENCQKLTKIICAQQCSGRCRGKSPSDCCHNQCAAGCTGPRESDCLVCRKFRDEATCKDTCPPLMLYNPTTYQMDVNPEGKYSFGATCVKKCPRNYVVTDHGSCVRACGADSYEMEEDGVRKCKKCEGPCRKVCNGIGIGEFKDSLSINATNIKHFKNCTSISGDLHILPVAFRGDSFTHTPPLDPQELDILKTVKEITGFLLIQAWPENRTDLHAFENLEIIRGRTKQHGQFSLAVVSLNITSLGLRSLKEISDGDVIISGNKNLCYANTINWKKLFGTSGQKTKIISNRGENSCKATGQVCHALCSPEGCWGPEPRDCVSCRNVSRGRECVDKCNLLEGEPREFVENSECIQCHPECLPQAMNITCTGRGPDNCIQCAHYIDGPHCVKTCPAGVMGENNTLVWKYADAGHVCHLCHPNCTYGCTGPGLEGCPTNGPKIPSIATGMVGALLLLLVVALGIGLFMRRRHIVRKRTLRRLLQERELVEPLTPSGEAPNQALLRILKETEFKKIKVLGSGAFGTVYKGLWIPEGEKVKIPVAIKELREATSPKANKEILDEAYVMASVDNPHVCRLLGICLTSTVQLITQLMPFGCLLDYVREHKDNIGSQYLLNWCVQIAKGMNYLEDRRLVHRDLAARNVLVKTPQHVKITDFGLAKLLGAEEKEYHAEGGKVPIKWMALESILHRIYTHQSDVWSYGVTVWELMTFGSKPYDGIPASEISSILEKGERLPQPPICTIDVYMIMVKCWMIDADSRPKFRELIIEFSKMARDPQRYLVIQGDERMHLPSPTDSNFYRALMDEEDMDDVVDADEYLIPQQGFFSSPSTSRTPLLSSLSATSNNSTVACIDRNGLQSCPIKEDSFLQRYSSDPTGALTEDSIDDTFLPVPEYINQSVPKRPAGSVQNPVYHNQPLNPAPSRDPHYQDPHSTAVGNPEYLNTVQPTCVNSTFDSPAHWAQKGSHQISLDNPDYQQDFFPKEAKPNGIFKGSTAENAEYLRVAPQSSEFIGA

As a reminder, the inhibition is the percentage by which the read-out fell short of the control. A higher inhibition goes with strong suppression. The AUC(0-t) is exposure summed from dosing to a finite time, without extrapolation to infinity. Read a high AUC(0-t) as high exposure. In general, IC50 refers to the concentration at which inhibition is half-maximal. A word on the Cmax: it is the maximum level reached in the sampled fluid or tissue. With `C=CC(=O)Nc1cc(Nc2ncc(C(=O)OC(C)C)c(-c3cn(C)c4ccccc34)n2)c(OC)cc1N(C)CCN(C)C` [MOBOCERTINIB], the figures for the Activity (in the series on BaF3 [1]; in series [7]) were -98% and “Non-Toxic”, respectively. In addition, the inhibition is over 97% in series [2], over 81% in series [4], over 81% in [5] and over 81% in series [11]. This molecule also showed an AUC(0-t) in series [3] of 341 ng·h/mL. Moreover, the IC50 in [6] is 18.1 nM; in the series with BaF3 [8], 3950 nM; in series [10] it was 34.5 nM; in [12] it was 22.5 nM; in series [13], 2.7 nM; in series [14], 6.3 nM. For the same molecule, in series [15], the half-inhibitory concentration (IC50) was 11 nM. The same molecule showed a Cmax in series [9] of 143 ng/mL.
